Source: US8962624B2, “Morpholines as selective inhibitors of cytochrome P450 2A13” (University of Kansas, priority 2007, dated 2015)
Where “and” joins values, the source holds several entries; their conditions need not be identical. Equal values may be shown once. Where a name gives a salt, the structure may show the parent alone. Read-outs that look alike come from different tables or passages of the source.

Assays:
CYP2A13 = target: T1, CYP2A13 (Homo sapiens, UniProt Q16696); experiment: Spectral shift ligand binding titration (cuvette method) with purified CYP2A13dH; conditions: for Selectivity 2A6 Kd/2A13 Kd: (CYP2A6 Kd)/(CYP2A13 Kd), higher numbers are more selective
T1 construct: truncation of the non-catalytic N-terminal transmembrane helix and addition of a C-terminal 4× histidine tag; 4xHis (C); made in house; host or cells: E. coli
T1 sequence (Q16696 with tags, fused parts or gaps limits assumed): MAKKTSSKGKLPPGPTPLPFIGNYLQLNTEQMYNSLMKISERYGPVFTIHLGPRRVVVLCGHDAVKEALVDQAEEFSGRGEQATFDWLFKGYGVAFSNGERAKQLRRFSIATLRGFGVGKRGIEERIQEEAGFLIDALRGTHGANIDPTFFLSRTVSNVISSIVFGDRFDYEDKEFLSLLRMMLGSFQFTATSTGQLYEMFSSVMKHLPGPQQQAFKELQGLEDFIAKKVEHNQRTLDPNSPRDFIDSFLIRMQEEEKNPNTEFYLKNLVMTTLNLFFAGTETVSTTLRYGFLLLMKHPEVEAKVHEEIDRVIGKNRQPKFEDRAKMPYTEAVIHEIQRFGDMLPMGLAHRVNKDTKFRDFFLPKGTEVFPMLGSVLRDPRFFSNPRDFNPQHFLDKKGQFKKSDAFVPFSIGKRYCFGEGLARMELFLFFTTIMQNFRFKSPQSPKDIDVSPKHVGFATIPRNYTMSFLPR
Description: (§1) To date, virtually all attempts to characterize full-length mammalian cytochromes P450 have been restricted by the production of only small (nanomolar) amounts of protein. However, truncation of the non-catalytic N-terminal transmembrane helix and addition of a C-terminal 4× histidine tag allow us to recombinantly produce tens of milligrams of highly purified modified CYP2A13 and CYP2A6 proteins per liter of E. coli culture. These engineered versions of the proteins (CYP2A13dH and CYP2A6dH are not shown) are fully functional in both binding ligands and metabolism of substrates. Protein expression in E. coli is initiated with the addition of IPTG to media supplemented with the heme precursor aminolevulinic acid. After 48-72 hours this expression system yields approximately 500-1300 nmol (27-71 mg) of CYP2A13dH or CYP2A6dH per liter of bacterial culture. Briefly, P450 proteins are liberated from E, coli membranes using a specialized detergent and high salt conditions and subsequently purified using metal-affinity and carboxymethyl-sepharose (CM-sepharose) affinity chromatography. Overall purification yield is up to 14 mg of highly purified protein per liter of E. coli culture.
(§2) Cytochrome P4502A13dH was expressed and purified as previously described (J. Biol. Chem. (2007), 282(23)17306-17313). Briefly, CYP2A13 was solubilized from the membrane using 4.8 mM Cymal-5 detergent (Anatrace, Maumee, Ohio) and 0.3M NaCl followed by ultracentrifugation at 30,000 rpm for 60 minutes. The solubilized protein was applied to Ni^2+-agarose resin (Qiagen, Valencia, Calif.) and after extensive washing with Buffer A (0.1M potassium phosphate, pH 7.4, 20% glycerol, 0.2M sodium chloride, 4.8 mM cymal, 8 mM histidine), the protein was eluted using Buffer B (Buffer A containing 2 mM EDTA and 80 mM histidine). The fractions containing protein with absorbance at 415 nm were pooled, diluted 5-fold with Buffer C (5 mM potassium phosphate, pH 7.4, 20% glycerol, 4.8 mM Cymal-5), and loaded onto HiTrap CM-FF column. The column was washed extensively with Buffer C without the detergent. Purified CYP2A13 was eluted using Buffer C with 50 mM potassium phosphate and 500 mM NaCl. An average yield of 14 mgs of CYP2A13 was obtained per liter of E. coli culture, Cytochrome P4502A6dH was similarly prepared.
(§3) The UV/visible spectra of purified CYP2A13dH and CYP2A6dH have a Soret peak at 418 nm, indicative of a low-spin, six-coordinate configuration of the heme iron bound to an active site water molecule (FIG. 1A). When ligands bind in the active site they frequently displace the water from the iron, resulting in a shift to five-coordinate, high spin iron with a maximal absorbance 395 nm. For cytochrome P450 enzymes, one often records the spectrum shift that occurs as protein is titrated with ligand to determine ligand affinity (kd values) (FIG. 1B).
(§4) The compounds that induced spectral shifts close to that of the positive control (PEITC) were validated in the spectral shift assay using the low throughput cuvette method. CYP2A13 protein samples were diluted to a concentration of 1 μM in 100 mM potassium phosphate buffer (pH 7.4) and were divided equally between reference and sample 1 mL quartz cuvettes. Concentrated compound stocks were prepared in 100% DMSO and the sample baseline was taken from 300-500 nm before beginning the titration. Substrate was added to the sample cuvette, mixed, and allowed to equilibrate for 2 minutes. An equal amount of ethanol was added to the reference cuvette for every addition of compound stock to the sample. The total amount of ethanol was kept less than 2% for each titration. After each coumarin addition, difference spectra were recorded from 300-500 nm and the change maximum (˜420 nm) to the minimum (˜385 nm) was determined. Graphpad Prism 4 (Graphpad Software, San Diego, Calif.) was used to determine the Ks and ΔAmax with nonlinear least-squares regression fitting to the equation: […]

CYP2A6 = target: T2, CYP2A6 (Homo sapiens, UniProt P11509); experiment: Spectral shift ligand binding titration with purified CYP2A6dH; conditions: for Kd / 2A6 Av. Kd: Table 1, average Kd; for Kd: read-out: 2A6 Av. Kd; for binding to CYP2A6 in titration / spectral shift with CYP2A6: result in words
T2 construct: truncation of the non-catalytic N-terminal transmembrane helix and addition of a C-terminal 4× histidine tag; 4xHis (C); made in house; host or cells: E. coli
T2 sequence (P11509 with tags, fused parts or gaps limits assumed): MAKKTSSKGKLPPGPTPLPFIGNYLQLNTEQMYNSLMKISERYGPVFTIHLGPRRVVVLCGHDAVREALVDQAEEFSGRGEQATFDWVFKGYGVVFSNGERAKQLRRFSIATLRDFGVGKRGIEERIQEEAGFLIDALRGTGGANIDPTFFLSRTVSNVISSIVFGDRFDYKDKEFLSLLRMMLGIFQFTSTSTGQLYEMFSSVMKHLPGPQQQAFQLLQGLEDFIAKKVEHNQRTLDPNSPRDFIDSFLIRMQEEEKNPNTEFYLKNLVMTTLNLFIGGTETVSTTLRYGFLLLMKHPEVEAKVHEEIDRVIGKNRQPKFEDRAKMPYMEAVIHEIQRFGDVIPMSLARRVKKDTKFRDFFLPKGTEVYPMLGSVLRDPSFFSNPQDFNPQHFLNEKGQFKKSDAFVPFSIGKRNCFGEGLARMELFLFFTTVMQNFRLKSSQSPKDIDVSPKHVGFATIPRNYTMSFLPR
Description: as §1, §2, §3, §4

[1] = Table 1, average Kd, read-out: 2A13 Av. Kd
[2] = initial characterisation of the hits, read-out: initial Kd values, CYP2A13
[3] = multiple titrations, read-out: average Kd for CYP2A13

Selectivity 2A6 Kd/2A13 Kd (CYP2A13)	Kd (CYP2A13; [1])	Kd (CYP2A6)	Kd (CYP2A13; [2])	Kd (CYP2A13; [3])	2A6 Av. Kd (CYP2A6)	binding to CYP2A6 in titration (CYP2A6)	spectral shift with CYP2A6 (CYP2A6)	Kd (CYP2A13; text b152, unit inferred, multiple titrations, read-out: average Kd)	Kd (CYP2A13; Table 2, unit inferred, read-out: 2A13 Kd)	Compound
12.9	37.7 µM	> 486 µM	–	–	–	–	–	–	–	4-(2,3-dichlorobenzyl)-1,6-dimethylmorpholine [Compound 10]
high	–	–	1.8 µM	7.3 µM	No binding	no substantially binding	no spectral shift	–	–	Clc1ccccc1CN1CCOCC1 [Compound 1, 4-(2-chlorobenzyl)morpholine]
high	–	–	–	~5.8 µM and 5.8 µM	No binding	no binding	absolutely no spectral shift	–	–	Fc1cccc(Cl)c1CN1CCOCC1 [Compound 2, 4-(2-chloro-6-fluorobenzyl)morpholine]
high	19.3 µM	–	4 µM	19.3 µM	No binding	no substantially binding	no spectral shift	19.3 µM	–	Cc1ccccc1CN1CCOCC1 [Compound 3, 4-(2-methylbenzyl)morpholine]
high	72.5 µM	–	–	–	No binding	–	–	–	–	Fc1ccccc1CN1CCOCC1 [Compound 5, 4-(2-fluorobenzyl)morpholine]
15.5	10 µM	155 µM	–	–	–	–	–	–	–	Clc1ccccc1CN1CCSCC1 [Compound 6, 4-(2-chlorobenzyl)thiomorpholine]
27	28.5 µM	788 µM	–	–	–	–	–	–	–	Clc1cccc(CN2CCOCC2)c1Cl [Compound 7, 4-(2,3-dichlorobenzyl)morpholine]
291	1.9 µM	553 µM	–	–	–	–	–	–	–	Clc1cccc(Cl)c1CN1CCOCC1 [Compound 8, 4-(2,6-dichlorobenzyl)morpholine]
5.66	35 µM	198 µM	–	–	–	–	–	–	–	Clc1ccc(CN2CCOCC2)c(Cl)c1 [Compound 9, 4-(2,4-dichlorobenzyl)morpholine]
–	–	–	–	–	–	–	–	–	28.8 µM	C1CN(C2C3CC4CC(C3)CC2C4)CCO1 (centres unmarked) [Compound 31, 4-(2-adamantyl)morpholine hydrochloride]

Compound	Selectivity 2A6 Kd/2A13 Kd (CYP2A13)	Kd (CYP2A13; [1])	Kd (CYP2A6)	Kd (CYP2A13; [2])	Kd (CYP2A13; [3])	2A6 Av. Kd (CYP2A6)	binding to CYP2A6 in titration (CYP2A6)	spectral shift with CYP2A6 (CYP2A6)	Kd (CYP2A13; text b152, unit inferred, multiple titrations, read-out: average Kd)	Kd (CYP2A13; Table 2, unit inferred, read-out: 2A13 Kd)
Brc1ccccc1CN1CCOCC1 [Compound 4, 4-(2-bromobenzyl)morpholine]	high	7 µM	–	–	–	No binding	–	–	–	–
